Here are results for 14 molecules from patent publication US20020076728A1, “Engineering affinity ligands for macromolecules” (priority 1997, published 2002).

The target of one data set is tPA (Homo sapiens, UniProt P00750). The experiment in a line: 15-amino acid segment of #109 bound to chromatographic support, tPA binding. To be noted: bound to a chromatographic support; initial studies. From the text:
As noted above, almost all of the variegation in amino acid positions used in building the CMTI library occurred between two cyteines at positions 3 and 10 of CMTI-I (see Table 3). In the parental CMTI protein, these cysteines form disulfide bonds with other cysteine residues elsewhere in the protein (see SEQ ID NO: 1), however with the successful isolation of affinity ligands from the CMTI library, a secondary library was conceptualized which was based on variegating a truncated 15-amino acid segment of the isolate #109 (see amino acids 1-15 of SEQ ID NO: 12). If the C3 and C10 cysteines of these members formed a disulfide bond, then a constrained loop having tPA binding properties might be obtained.

Another data set has as its system M13 phage. As to the kind of experiment: Stability of M13 in various organic solvents (phage survival). To be noted: for surviving phage: incubation for 20 minutes with 80% solvent. From the text:
Thus, if phage display libraries are used, it is of interest to determine whether organic solvents disrupt the phage.

For data set [1] the following is noted: side-chain ionizable group of the amino acid type in proteins; cited from earlier work.
In data set [2] the target is T1, recombinant human tissue-type plasminogen activator (human, UniProt P00750 36-562).
T1 construct: Bought; immobilised on Reacti-Gel agarose beads for phage work, in solution for column tests; also called tPA
T1 sequence (P00750 36-562 limits assumed): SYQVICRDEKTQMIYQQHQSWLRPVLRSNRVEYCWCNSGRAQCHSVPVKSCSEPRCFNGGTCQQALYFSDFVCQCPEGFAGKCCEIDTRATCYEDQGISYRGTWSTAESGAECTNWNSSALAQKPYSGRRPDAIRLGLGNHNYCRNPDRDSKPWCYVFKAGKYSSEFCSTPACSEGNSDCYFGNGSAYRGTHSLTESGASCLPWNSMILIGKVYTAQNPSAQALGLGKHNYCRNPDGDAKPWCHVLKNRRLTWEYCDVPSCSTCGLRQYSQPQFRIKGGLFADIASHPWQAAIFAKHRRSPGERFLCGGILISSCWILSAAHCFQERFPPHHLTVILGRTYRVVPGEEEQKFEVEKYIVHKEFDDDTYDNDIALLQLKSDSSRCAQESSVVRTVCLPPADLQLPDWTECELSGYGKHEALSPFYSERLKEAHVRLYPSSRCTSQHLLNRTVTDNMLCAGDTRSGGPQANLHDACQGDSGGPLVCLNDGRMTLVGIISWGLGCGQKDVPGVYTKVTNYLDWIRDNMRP
As to the kind of experiment: peptide bound to a chromatographic support.

[3] abbreviates: 10% solvent by volume in Luria broth.
[4] abbreviates: 20% solvent by volume in Luria broth.
[5] abbreviates: 40% solvent by volume in Luria broth.
The mark [6] stands for this setting: 80% solvent by volume in Luria broth.
The mark [7] stands for this setting: 2% solvent by volume in Luria broth.
The mark [8] stands for this setting: 5% solvent by volume in Luria broth.

Several values for one entry are separate records, joined by “and”; a condition that tells them apart may be missing. Equal values may be shown once. Ends that are not written are not given here. Bounds are passed on as bounds.

tPA, sequence (P00750 36-562): as the sequence (P00750 36-562 limits assumed) above

Regarding “15-amino acid segment derived from affinity ligand isolate #109: truncated 15-amino acid segment of isolate #109 (amino acids 1-15 of SEQ ID NO: 12), C3-C10 disulfide loop (RLCPKTDLGCMKDSD; also: C3-C10 disulfide stated only as a possibility)”, the “binding of immobilized loop to tPA” value with tPA is on record as “bound to tPA”.
On to `CC#N` [ACN, acetonitrile], for which the “Survival after 20 min. (%)” value was 84% with M13 phage (setting [3]); 80% with M13 phage (setting [4]); 92% in the data set with M13 phage (setting [5]); 30% and 37% with M13 phage (setting [6]). The “Survival after 60 min. (%)” value in the data set on M13 phage (setting [3]) was 74%; in the data set on M13 phage (setting [4]), 91%; in the data set with M13 phage (setting [5]), 89%; with M13 phage (setting [6]) it was 8% and 3%.
With `N=C(N)NCCC[C@H](N)C(=O)O` [Arg], in data set [1], the pKa range is on record as 12.0.
For the molecule `N[C@@H](CC(=O)O)C(=O)O` [Asp, aspartic acid], the pKa range in data set [1] is recorded as 3.9-4.0.
Consider `N[C@@H](CS)C(=O)O` [Cys (not in disulfide)], for which the pKa range in data set [1] is 9.0-9.5.
As to `CN(C)C=O` [DMF, dimethylformamide], the surviving phage entry with M13 phage is “no surviving phage”.
Consider `C[S+](C)[O-]` [DMSO, dimethylsulfoxide], for which the “Survival after 20 min. (%)” value in the data set with M13 phage (setting [7]) is listed as 84%; in the data set with M13 phage (setting [8]) it was 68%; in the data set with M13 phage (setting [3]), 96%; in the data set on M13 phage (setting [4]) it was 73%; in the data set with M13 phage (setting [6]) it was 1%. Further, the “Survival after 60 min. (%)” value in the data set on M13 phage (setting [7]) was 89%; with M13 phage (setting [8]) it was 86%; in the data set on M13 phage (setting [3]), 86%; with M13 phage (setting [4]) it was 82%; in the data set on M13 phage (setting [6]) it was above 1%.
Turning to `CCO` [EtOH, ethanol], the surviving phage entry in the data set on M13 phage is listed as “no surviving phage”.
Consider `N[C@@H](CCC(=O)O)C(=O)O` [Glu], for which the pKa range in data set [1] was 4.3-4.5.
For `N[C@@H](Cc1c[nH]cn1)C(=O)O` [His, Histidine], the pKa range in data set [1] is 6.0-7.0.
`CC(C)O` [IPA, isopropyl alcohol]: the surviving phage entry in the data set on M13 phage is “no surviving phage”.
Consider `NCCCC[C@H](N)C(=O)O` [Lys], for which the pKa range in data set [1] is on record as 10.4-11.1.
For the molecule `CO` [MeOH, methanol], the “Survival after 20 min. (%)” value in the data set with M13 phage (setting [3]) was 110%; in the data set on M13 phage (setting [4]), 93%; in the data set on M13 phage (setting [5]), 92%. Also, the “Survival after 60 min. (%)” value in the data set on M13 phage (setting [3]) was found to be 80%; in the data set on M13 phage (setting [4]) it was 84%; in the data set with M13 phage (setting [5]) it was 84%.

B1: 15-amino acid segment derived from affinity ligand isolate #109 (peptide)
peptide: RLCPKTDLGCMKDSD
modifications: also: C3-C10 disulfide stated only as a possibility
notes: also called truncated 15-amino acid segment of the isolate #109; C3-C10 loop
Take B1: the binding result in data set [2] is listed as “binds”.
